Patent US9394263B2, “Substituted hetero-azepinones” (priority 2012, dated 2016)
pIC50: −log10 of the molar value. Where a name gives a salt, the structure may show the parent alone.

What follows are compounds tested against BIR2 domain of XIAP (Homo sapiens (Human), UniProt P98170, C202A/C213G) (assay: TR-FRET assay for BIR2: inhibition of binding of XIAP BIR2 domain to Peptide A (SMAC-derived peptide)). Conditions: not given.
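Also: percent inhibition measured across a concentration series of each compound, from which the IC50 was derived.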

Sequence of BIR2 domain of XIAP (P98170 other isoform, or with tags, fused parts or gaps, stated change not applied): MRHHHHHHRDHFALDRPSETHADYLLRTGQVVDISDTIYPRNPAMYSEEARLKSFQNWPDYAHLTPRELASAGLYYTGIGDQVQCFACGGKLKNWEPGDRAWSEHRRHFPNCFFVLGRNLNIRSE

| pIC50 | SMILES |
| --- | --- |
| 7.19 | CN[C@@H](C)C(=O)N[C@@H]1C(=O)N(Cc2c(OC)ccc3cc(Br)ccc23)c2ccccc2OC12CCOCC2 [Example 1g] |
| 5.36 | CN[C@@H](C)C(=O)N[C@H]1C(=O)N(Cc2c(OC)ccc3cc(Br)ccc23)c2ccccc2OC12CCOCC2 [Example 1f] |
| 6.85 | CN[C@@H](C)C(=O)N[C@@H]1C(=O)N(Cc2c(OC)cnc3ccccc23)c2ccccc2OC12CCOCC2 [Example 1r] |
| 6.93 | CN[C@@H](C)C(=O)N[C@@H]1C(=O)N(Cc2nn(-c3ccc(C(=O)O)cc3C#N)c3ccccc23)c2ccccc2O[C@H]1C [Example 80, 3-Cyano-4-(3-(((2S,3S)-2-methyl-3-((S)-2-(methylamino)propanamido)-4-oxo-3,4-dihydrobenzo[b][1,4]oxazepin-5(2H)-yl)methyl)-1H-indazol-1-yl)benzoic acid trifluoroacetate] |

Same assay, conditions: read-out: BIR2 IC50

| SMILES | pIC50 |
| --- | --- |
| CN[C@@H](C)C(=O)N[C@H]1COc2ccc(C(F)(F)F)cc2N(Cc2c(OC)ccc3cc(Br)ccc23)C1=O [Example 42, (S)-N-((S)-5-((6-Bromo-2-methoxynaphthalen-1-yl)methyl)-4-oxo-7-(trifluoromethyl)-2,3,4,5-tetrahydrobenzo[b][1,4]oxazepin-3-yl)-2-(methylamino)propanamide trifluoroacetate] | 7.24 |
| CN[C@@H](C)C(=O)N[C@@H]1C(=O)N(Cc2c(OC)ccc3cc(Br)ccc23)c2ccc(C)cc2O[C@H]1C [Example 39, (S)-N-((2S,3S)-5-((6-Bromo-2-methoxynaphthalen-1-yl)methyl)-2,8-dimethyl-4-oxo-2,3,4,5-tetrahydrobenzo[b][1,4]oxazepin-3-yl)-2-(methylamino)propanamide trifluoroacetate] | 7.27 |
| CN[C@@H](C)C(=O)N[C@H]1COc2ccccc2N(Cc2c(OC)ccc3cc(C(=O)OC)ccc23)C1=O [Example 31, Methyl 6-methoxy-5-(((S)-3-((S)-2-(methylamino)propanamido)-4-oxo-3,4-dihydrobenzo[b][1,4]oxazepin-5(2H)-yl)methyl)-2-naphthoate trifluoroacetate] | 6.72 |
| CN[C@@H](C)C(=O)N[C@H]1COc2c(C(=O)NCc3ccc(C(=O)OC)cc3)cccc2N(Cc2c(OC)ccc3cc(Br)ccc23)C1=O [Example 51, 4-({[(S)-9-(6-Bromo-2-methoxy-naphthalen-1-ylmethyl)-7-((S)-2-methylamino-propionylamino)-8-oxo-6,7,8,9-tetrahydro-5-oxa-9-aza-benzocycloheptene-4-carbonyl]-amino}-methyl)-benzoic acid methyl ester] | 6.39 |
| CC[C@H](NCCO)C(=O)N[C@H]1COc2ccccc2N(Cc2c(OC)ccc3cc(Br)ccc23)C1=O [Example 83, (S)-N-((S)-5-((6-Bromo-2-methoxynaphthalen-1-yl)methyl)-4-oxo-2,3,4,5-tetrahydrobenzo[b][1,4]oxazepin-3-yl)-2-(2-hydroxyethylamino)butanamide trifluoroacetate] | 7.36 |
| CN[C@@H](C)C(=O)N[C@H]1COc2ccccc2N(Cc2cccc(Cl)c2)C1=O [Example 46, (S)-N-((S)-5-(3-Chlorobenzyl)-4-oxo-2,3,4,5-tetrahydrobenzo[13,][1,4]oxazepin-3-yl)-2-(methylamino)propanamide] | 5.51 |
| CN[C@@H](C)C(=O)N[C@H]1COc2c(C(=O)O)cccc2N(Cc2c(OC)ccc3cc(C(=O)O)ccc23)C1=O [Example 52, (S)-5-((6-Carboxy-2-methoxynaphthalen-1-yl)methyl)-3-((S)-2-(methylamino)propanamido)-4-oxo-2,3,4,5-tetrahydrobenzo[b][1,4]oxazepine-9-carboxylic acid trifluoroacetate] | 7.23 |
| CN[C@@H](C)C(=O)N[C@H]1COc2c(C(=O)N3CCN(CCO)CC3)cccc2N(Cc2ccc(Br)c3ccccc23)C1=O [Example 55, (S)-N-((S)-5-((4-Bromonaphthalen-1-yl)methyl)-9-(4-(2-hydroxyethyl)piperazine-1-carbonyl)-4-oxo-2,3,4,5-tetrahydrobenzo[b][1,4]oxazepin-3-yl)-2-(methylamino)propanamide] | 6.02 |
| CN[C@@H](C)C(=O)N[C@H]1COc2ccccc2N(Cc2c(OC)ccc3ccccc23)C1=O [Example 29b] | 6.70 |
| CN[C@@H](C)C(=O)N[C@H]1COc2c(C(=O)O)cccc2N(Cc2c(OC)ccc3cc(Br)ccc23)C1=O [Example 48, (S)-5-((6-bromo-2-methoxynaphthalen-1-yl)methyl)-3-((S)-2-(methylamino)propanamido)-4-oxo-2,3,4,5-tetrahydrobenzo[b][1,4]oxazepine-9-carboxylic acid trifluoroacetate] | 7.05 |
| CN[C@@H](C)C(=O)N[C@H]1COc2c(C(=O)O)cccc2N(Cc2ccc(Br)c3ccccc23)C1=O [Example 54, (S)-5-((4-Bromonaphthalen-1-yl)methyl)-3-((S)-2-(methylamino)propanamido)-4-oxo-2,3,4,5-tetrahydrobenzo[b][1,4]oxazepine-9-carboxylic acid trifluoroacetate] | 6.19 |
| CN[C@@H](C)C(=O)N[C@@H]1C(=O)N(Cc2c(OC)ccc3cc(Br)ccc23)c2cc(C(F)(F)F)ccc2O[C@H]1C [Example 43, (S)-N-[(6S,7S)-9-(6-Bromo-2-methoxy-naphthalen-1-ylmethyl)-6-methyl-8-oxo-2-trifluoromethyl-6,7,8,9-tetrahydro-5-oxa-9-aza-benzocyclohepten-7-yl]-2-methylamino-propionamide trifluoroacetate] | 7.04 |
| CN[C@@H](C)C(=O)N[C@H]1COc2ccccc2N(Cc2cc(=O)n(C)c3ccc(F)cc23)C1=O [Example 61, (S)-N-((S)-5-((6-Fluoro-1-methyl-2-oxo-1,2-dihydroquinolin-4-yl)methyl)-4-oxo-2,3,4,5-tetrahydrobenzo[b][1,4]oxazepin-3-yl)-2-(methylamino)propanamide] | 6.16 |
| CN[C@@H](C)C(=O)N[C@H]1COc2ccccc2N(Cc2c(OC)ccc3cc(C(=O)O)ccc23)C1=O [Example 32, 6-Methoxy-5-(((S)-3-((S)-2-(methylamino)propanamido)-4-oxo-3,4-dihydrobenzo[b][1,4]oxazepin-5(2H)-yl)methyl)-2-naphthoic acid trifluoroacetate] | 7.26 |
| CN[C@@H](C)C(=O)N[C@H]1COc2c(C(=O)N3CCN(CCCO)CC3)cccc2N(Cc2ccc(Br)c3ccccc23)C1=O [Example 56, (S)-N-((S)-5-((4-Bromonaphthalen-1-yl)methyl)-9-(4-(3-hydroxypropyl)piperazine-1-carbonyl)-4-oxo-2,3,4,5-tetrahydrobenzo[b][1,4]oxazepin-3-yl)-2-(methylamino)propanamide] | 5.80 |
| CN[C@@H](C)C(=O)N[C@H]1COc2c(cccc2C(F)(F)F)N(Cc2noc3ccccc23)C1=O [Example 90, (S)-N-((S)-5-(Benzo[d]isoxazol-3-ylmethyl)-4-oxo-9-(trifluoromethyl)-2,3,4,5-tetrahydrobenzo[b][1,4]oxazepin-3-yl)-2-(methylamino)propanamide hydrochloride] | 6.31 |
| CN[C@@H](C)C(=O)N[C@H]1COc2c(C(=O)NCCC(=O)O)cccc2N(Cc2c(OC)ccc3cc(Br)ccc23)C1=O [Example 50, 3-{[(S)-9-(6-Bromo-2-methoxy-naphthalen-1-ylmethyl)-74S)-2-methylamino-propionylamino)-8-oxo-6,7,8,9-tetrahydro-5-oxa-9-aza-benzocycloheptene-4-carbonyl]-amino}-propionic acid trifluoroacetate] | 6.87 |
